What was measured:
S. marcescens = assay: Susceptibility testing, MIC by Etest; format: cell-based, Serratia marcescens; conditions: S. marcescens Wild-type, chromosome-encoded cephalosporinase, n=2
Procedure: Susceptibility testing was performed by determining MIC values using the Etest® (AB bioMérieux; Solna, Sweden) on Mueller-Hinton agar plates at 37° C. and results were recorded according to US guidelines (CLSI), as updated in 2012 (2). The breakpoints for cefotaxime are susceptible (S)≤1 and resistant (R)≥4 μg/ml, and for ceftazidime S≤4 and R≥16 μg/ml.

Enterobacteriaceae = format: biochemical; conditions: all CTX-M producers (n=147); tazobactam added to cefotaxime well
Procedure: Strains were isolated on Mueller-Hinton agar (Biorad, Marnes-la-Coquette, France) and incubated at 37° C. for 16 h to 24 h before performing the NDP rapid ESBL test as follows. One calibrated inoculated loop (10 μl) of the tested strain was resuspended in 150 μl of 20 mM Tris-HCl lysis buffer previously distributed in Microbead tubes (Ultraclean Microbial DNA isolation kit Bead Tubes, MO BIO Laboratories, Carlsbad, USA). Mechanical lysis of bacteria was performed by strong agitation of Microbead tubes using a vortex adapter (MO BIO Laboratories) for 30 min at room temperature. This bacterial suspension was centrifuged at 10,000×g at room temperature for 5 min. Thirty μl of the supernatant was mixed in a well of a 96-well tray with 100 μl of a 1 ml solution made of 3 mg of purified cefotaxime sodium salt (Sigma-Aldrich, Saint-Quentin-Fallavier, France) in a pH 7.8 phenol red solution. […] The phenol red solution was made by taking 2 ml of a concentrated pH 8 phenol solution (made from a mixture of phenol red 0.5% in distilled water) to which 16.6 ml of distilled water was added. The pH value was then adjusted to a 7.8 value by adding drops of a 1 N NaOH solution. Mixture of the phenol red solution and the enzymatic suspension being tested was incubated at 37° C. for 30 min. Similarly, culture extracts were analyzed in wells containing cefotaxime and tazobactam (4 mg/ml). […]

E. cloacae [1] = assay: ESBL NDP test using cultured strains; format: biochemical, Enterobacter cloacae; design: key: (+) and (−) referred to color change being, red to yellow or unchanged, respectively; (+) and (−) referred to color change being, red to yellow or unchanged, respectively
Procedure: (§1) Strains were isolated on Mueller-Hinton agar (Biorad, Marnes-la-Coquette, France) and incubated at 37° C. for 16 h to 24 h before performing the NDP rapid ESBL test as follows. One calibrated inoculated loop (10 μl) of the tested strain was resuspended in 150 μl of 20 mM Tris-HCl lysis buffer previously distributed in Microbead tubes (Ultraclean Microbial DNA isolation kit Bead Tubes, MO BIO Laboratories, Carlsbad, USA). Mechanical lysis of bacteria was performed by strong agitation of Microbead tubes using a vortex adapter (MO BIO Laboratories) for 30 min at room temperature. This bacterial suspension was centrifuged at 10,000×g at room temperature for 5 min. Thirty μl of the supernatant was mixed in a well of a 96-well tray with 100 μl of a 1 ml solution made of 3 mg of purified cefotaxime sodium salt (Sigma-Aldrich, Saint-Quentin-Fallavier, France) in a pH 7.8 phenol red solution. […]. The phenol red solution was made by taking 2 ml of a concentrated pH 8 phenol solution (made from a mixture of phenol red 0.5% in distilled water) to which 16.6 ml of distilled water was added. The pH value was then adjusted to a 7.8 value by adding drops of a 1 N NaOH solution. Mixture of the phenol red solution and the enzymatic suspension being tested was incubated at 37° C. for 30 min. Similarly, culture extracts were analyzed in wells containing cefotaxime and tazobactam (4 mg/ml). Other concentrations of tazobactam and other ß-lactamase inhibitors were tested giving less clear results (data not shown). […] This definition of test positivity will be applied throughout the study.

P. stuartii = assay: ESBL NDP test using cultured strains; format: biochemical, Providencia stuartii; design: key: (+) and (−) referred to color change being, red to yellow or unchanged, respectively; (+) and (−) referred to color change being, red to yellow or unchanged, respectively; conditions: P. stuartii TEM-24, n=1
Procedure: Strains were isolated on Mueller-Hinton agar (Biorad, Marnes-la-Coquette, France) and incubated at 37° C. for 16 h to 24 h before performing the NDP rapid ESBL test as follows. One calibrated inoculated loop (10 μl) of the tested strain was resuspended in 150 μl of 20 mM Tris-HCl lysis buffer previously distributed in Microbead tubes (Ultraclean Microbial DNA isolation kit Bead Tubes, MO BIO Laboratories, Carlsbad, USA). Mechanical lysis of bacteria was performed by strong agitation of Microbead tubes using a vortex adapter (MO BIO Laboratories) for 30 min at room temperature. This bacterial suspension was centrifuged at 10,000×g at room temperature for 5 min. Thirty μl of the supernatant was mixed in a well of a 96-well tray with 100 μl of a 1 ml solution made of 3 mg of purified cefotaxime sodium salt (Sigma-Aldrich, Saint-Quentin-Fallavier, France) in a pH 7.8 phenol red solution. […]. The phenol red solution was made by taking 2 ml of a concentrated pH 8 phenol solution (made from a mixture of phenol red 0.5% in distilled water) to which 16.6 ml of distilled water was added. The pH value was then adjusted to a 7.8 value by adding drops of a 1 N NaOH solution. Mixture of the phenol red solution and the enzymatic suspension being tested was incubated at 37° C. for 30 min. Similarly, culture extracts were analyzed in wells containing cefotaxime and tazobactam (4 mg/ml). […]

K. pneumoniae = assay: ESBL NDP test using spiked blood cultures; format: biochemical, Klebsiella pneumoniae; design: key: (+) and (−) referred to color change being, red to yellow or unchanged, respectively; (+) and (−) referred to color change being, red to yellow or unchanged, respectively
Procedure: as §1
(§2) Rapid detection of ESBL producers was attempted from spiked blood cultures which positivity was assessed using the BactAlert blood culture system (bioMérieux). […] This inoculum was reached after 24-48 h incubation in this BactAlert system. Strains were inoculated into blood culture system in presence of 10 ml of sterile blood. The panel of strains used for spiking blood cultures included either non-ESBL producers (n=24) or ESBL producers (n=64) (Table 4). Spiked blood cultures were made of 1×10^3 CFU of each strain and incubated 24 to 48 h before a positivity of the blood culture was detected by the BactAlert system. Then, 15 ml of spiked blood culture were transferred in a sterile tube and centrifuged at 1,500×g for 3 min to pellet the red blood cells. The supernatant was recovered and centrifuged for 15 min at 4,000×g to pellet the bacteria. The bacterial pellet was then resuspended in 500 μl of distilled water, transferred in 1.5 ml tube and thoroughly vortexed for 15 sec to lyse the remnant red blood cells and wash the bacterial pellet. After 5 min of centrifugation at 10,000×g, the bacterial pellet was resuspended in 150 μl of 20 mM Tris-HCl lysis buffer and distributed in beadtubes. The ESBL NDP test was then applied to this pellet as described above. Experiments were systematically performed in triplicate.

E. cloacae [2] = assay: ESBL NDP test using spiked blood cultures; format: biochemical, Enterobacter cloacae; design: key: (+) and (−) referred to color change being, red to yellow or unchanged, respectively; (+) and (−) referred to color change being, red to yellow or unchanged, respectively
Procedure: as §1, §2

[3] = E. cloacae BG 1106 7725, Wild-type
[4] = E. cloacae BG 1106 7746, Wild-type
[5] = E. cloacae BG 1107 4118, Wild-type

CO/N=C(\C(=O)N[C@@H]1C(=O)N2C(C(=O)O)=C(COC(C)=O)CS[C@H]12)c1csc(N)n1 [CTX, cefotaxime]
turned from red to yellow: color of the wells (Enterobacteriaceae)
+: ESBL NDP Test from: Colonies (E. cloacae [1]; E. cloacae 09.57, SHV-12) | ESBL NDP Test from: Colonies (E. cloacae [1]; E. cloacae 10.75, CTX-M-15) | ESBL NDP Test from: Colonies (E. cloacae [1]; E. cloacae 10.87, CTX-M-15) | Test (color change) (E. cloacae [1]; E. cloacae CTX-M-14, n=1) | Test (color change) (E. cloacae [1]; E. cloacae CTX-M-15, n=17) | Test (color change) (E. cloacae [1]; E. cloacae GES-5, n=1) | Test (color change) (E. cloacae [1]; E. cloacae PER-1, n=1) | Test (color change) (E. cloacae [1]; E. cloacae SHV-5, n=1) | Test (color change) (E. cloacae [1]; E. cloacae SHV-12, n=6) | Test (color change) (E. cloacae [1]; E. cloacae TEM-3, n=2) | Test (color change) (E. cloacae [1]; E. cloacae VEB-1, n=1) | Test (color change) (E. cloacae [1]; E. cloacae, overexpressed chromosome-encoded cephalosporinase, n=3) | ESBL NDP Test from: Blood culture (K. pneumoniae; K. pneumoniae 09.127, SHV-2a) | ESBL NDP Test from: Blood culture (K. pneumoniae; K. pneumoniae 09.138, TEM-3) | ESBL NDP Test from: Blood culture (K. pneumoniae; K. pneumoniae 09.158, SHV-12) | ESBL NDP Test from: Blood culture (K. pneumoniae; K. pneumoniae 09.162, TEM-52) | ESBL NDP Test from: Blood culture (K. pneumoniae; K. pneumoniae 09.169, TEM-52) | ESBL NDP Test from: Blood culture (K. pneumoniae; K. pneumoniae 09.181, SHV-2a) | ESBL NDP Test from: Blood culture (K. pneumoniae; K. pneumoniae 09.190, SHV-2a) | ESBL NDP Test from: Blood culture (K. pneumoniae; K. pneumoniae 09.200, TEM-3) | ESBL NDP Test from: Blood culture (K. pneumoniae; K. pneumoniae 09.217, SHV-5) | ESBL NDP Test from: Blood culture (K. pneumoniae; K. pneumoniae 09.45, SHV-12) | ESBL NDP Test from: Blood culture (K. pneumoniae; K. pneumoniae 09.60, SHV-5) | ESBL NDP Test from: Blood culture (K. pneumoniae; K. pneumoniae 09.99, SHV-2a) | ESBL NDP Test from: Blood culture (K. pneumoniae; K. pneumoniae 10.159, CTX-M-3) | ESBL NDP Test from: Blood culture (K. pneumoniae; K. pneumoniae FOR, DHA-2) | ESBL NDP Test from: Blood culture (K. pneumoniae; K. pneumoniae MEK, CTX-M-15) | ESBL NDP Test from: Blood culture (K. pneumoniae; K. pneumoniae SHI, CTX-M-15) | ESBL NDP Test from: Blood culture (E. cloacae [2]; E. cloacae 09.57, SHV-12) | ESBL NDP Test from: Blood culture (E. cloacae [2]; E. cloacae 10.75, CTX-M-15) | ESBL NDP Test from: Blood culture (E. cloacae [2]; E. cloacae 10.87, CTX-M-15)
0.19 to 0.75 µg/mL: MICs range (S. marcescens)
−: ESBL NDP Test from: Colonies (E. cloacae [1]; [3]) | ESBL NDP Test from: Colonies (E. cloacae [1]; [4]) | ESBL NDP Test from: Colonies (E. cloacae [1]; [5]) | Test (color change) (E. cloacae [1]; E. cloacae Wild-type, chromosome-encoded cephalosporinase, n=5) | Test (color change) (E. cloacae [1]; E. cloacae, overexpressed chromosome-encoded cephalosporinase, n=2) | Test (color change) (P. stuartii) | ESBL NDP Test from: Blood culture (K. pneumoniae; K. pneumoniae ANG, DHA-1) | ESBL NDP Test from: Blood culture (K. pneumoniae; K. pneumoniae BG 1202 5484, Penicillinase) | ESBL NDP Test from: Blood culture (E. cloacae [2]; [3]) | ESBL NDP Test from: Blood culture (E. cloacae [2]; [4]) | ESBL NDP Test from: Blood culture (E. cloacae [2]; [5])

— US10793892B2, “Method for detecting the presence of expanded spectrum β-lactamase-producing bacteria in a sample” (INSERM (INSTITUT NATIONAL DE LA SANTE ET DE LA RECHERCHE …, priority 2011, dated 2020)
